Active and inactive are the calls of the source. The rule behind the calls is not given here.
How the values were obtained:
[1] = Toxicity in AOM/DSS-induced orthotopic CRC BALB/c mouse model assessed as lesions in kidney at 15 mg/kg, iv administered once every 2 days for 2 weeks by H&E staining based analysis; format: organism-based; settings: in vivo, 336 h
[2] = tested on: HCT-116; experiment: Cytotoxicity against human HCT-116 cells incubated for 48 hrs in presence of SN38 by SRB assay; format: functional, cell-based; settings: HCT-116, 48 h
[3] = tested on: HCT-116; experiment: Cytotoxicity against human HCT-116 cells incubated for 48 hrs by SRB assay; format: functional, cell-based; settings: HCT-116, 48 h
[4] = Toxicity in AOM/DSS-induced orthotopic CRC BALB/c mouse model assessed as lesions in stomach at 15 mg/kg, iv administered once every 2 days for 2 weeks by H&E staining based analysis; format: organism-based; settings: in vivo, 336 h
[5] = Toxicity in AOM/DSS-induced orthotopic CRC BALB/c mouse model assessed as lesions in heart at 15 mg/kg, iv administered once every 2 days for 2 weeks by H&E staining based analysis; format: organism-based; settings: in vivo, 336 h
[6] = Toxicity in AOM/DSS-induced orthotopic CRC BALB/c mouse model assessed as lesions in spleen at 15 mg/kg, iv administered once every 2 days for 2 weeks by H&E staining based analysis; format: organism-based; settings: in vivo, 336 h
[7] = tested on: HT-29; experiment: Cytotoxicity against human HT-29 cells incubated for 48 hrs in presence of SN38 by SRB assay; format: functional, cell-based; settings: HT-29, 48 h
[8] = Toxicity in AOM/DSS-induced orthotopic CRC BALB/c mouse model assessed as lesions in liver at 15 mg/kg, iv administered once every 2 days for 2 weeks by H&E staining based analysis; format: organism-based; settings: in vivo, 336 h
[9] = tested on: COLO 205; experiment: Cytotoxicity against human COLO 205 cells incubated for 48 hrs in presence of SN38 by SRB assay; format: functional, cell-based; settings: COLO 205, 48 h
[10] = Toxicity in AOM/DSS-induced orthotopic CRC BALB/c mouse model assessed as lesions in lung at 15 mg/kg, iv administered once every 2 days for 2 weeks by H&E staining based analysis; format: organism-based; settings: in vivo, 336 h
[11] = tested on: HT-29; experiment: Cytotoxicity against human HT-29 cells incubated for 48 hrs by SRB assay; format: functional, cell-based; settings: HT-29, 48 h
[12] = tested on: COLO 205; experiment: Cytotoxicity against human COLO 205 cells incubated for 48 hrs by SRB assay; format: functional, cell-based; settings: COLO 205, 48 h
[13] = Toxicity in AOM/DSS-induced orthotopic CRC BALB/c mouse model assessed as body weight loss at 15 mg/kg, iv administered once every 2 days for 2 weeks; format: organism-based; settings: in vivo, 336 h
[14] = Prodrug conversion in heart of BALB/c mouse assessed as SN38 release at 20 mg/kg, ip measured after 4 hrs by UHPLC-MS/MS analysis; format: ADME, organism-based; settings: in vivo
[15] = tested on: Colorectal cancer cell; experiment: Antitumor activity against AOM/DSS-induced orthotopic CRC BALB/c mouse model assessed as reduction in tumor area at 20 mg/kg, ip administered every other day for 2 weeks by dissecting microscopic analysis; format: functional, organism-based
[16] = Toxicity in AOM/DSS-induced orthotopic CRC BALB/c mouse model assessed as body weight loss at 20 mg/kg, ip administered every other day for 2 weeks; format: organism-based; settings: in vivo, 336 h
[17] = Prodrug conversion in tumor of BALB/c mouse assessed as SN38 release at 20 mg/kg, ip measured after 4 hrs by UHPLC-MS/MS analysis; format: ADME, organism-based, Neoplasm; settings: in vivo
[18] = Prodrug conversion in kidney of BALB/c mouse assessed as SN38 release at 20 mg/kg, ip measured after 4 hrs by UHPLC-MS/MS analysis; format: ADME, organism-based; settings: in vivo
[19] = Prodrug conversion in liver of BALB/c mouse assessed as SN38 release at 20 mg/kg, ip measured after 4 hrs by UHPLC-MS/MS analysis; format: ADME, organism-based; settings: in vivo
[20] = Prodrug conversion in stomach of BALB/c mouse assessed as SN38 release at 20 mg/kg, ip measured after 4 hrs by UHPLC-MS/MS analysis; format: ADME, organism-based; settings: in vivo
[21] = Prodrug conversion in brain of BALB/c mouse assessed as SN38 release at 20 mg/kg, ip measured after 4 hrs by UHPLC-MS/MS analysis; format: ADME, organism-based; settings: in vivo
[22] = Prodrug conversion in spleen of BALB/c mouse assessed as SN38 release at 20 mg/kg, ip measured after 4 hrs by UHPLC-MS/MS analysis; format: ADME, organism-based; settings: in vivo
[23] = Biodistribution in gastrointestinal tract of BALB/c mouse at 20 mg/kg, ip measured after 4 hrs by UHPLC-MS/MS analysis; format: ADME, organism-based; settings: in vivo
[24] = Drug uptake in plasma of BALB/c mouse at 20 mg/kg, ip measured after 3 hrs by UHPLC-MS/MS analysis; format: ADME, organism-based; settings: in vivo
[25] = Drug uptake in human COLO 205 cells assessed as drug internalization in presence of 4.5 g/L glucose by fluorescence based assay; format: ADME, cell-based
[26] = Prodrug conversion in intestine of BALB/c mouse assessed as SN38 release at 20 mg/kg, ip measured after 4 hrs by UHPLC-MS/MS analysis; format: ADME, organism-based; settings: in vivo
[27] = Biodistribution in colorectal tumor site of BALB/c mouse at 20 mg/kg, ip measured after 4 hrs by UHPLC-MS/MS analysis; format: ADME, organism-based, Neoplasm; settings: in vivo
[28] = Prodrug conversion in lung of BALB/c mouse assessed as SN38 release at 20 mg/kg, ip measured after 4 hrs by UHPLC-MS/MS analysis; format: ADME, organism-based; settings: in vivo
[29] = Stability in human plasma assessed as half life by RP-HPLC analysis; format: ADME, cell-free
[30] = Antitumor activity against AOM/DSS-induced orthotopic CRC BALB/c mouse model assessed as tumor growth inhibition at 40 mg/kg, iv administered once every 2 days for 2 weeks in presence of SGLT inhibitor by dissecting microscopic analysis relative to control; format: functional, Colorectal cancer cell; set-up: scale not given: the % may be the effect or the level left
[31] = Antitumor activity against AOM/DSS-induced orthotopic CRC BALB/c mouse model assessed as tumor growth inhibition at 20 mg/kg, iv administered once every 2 days for 2 weeks in presence of SGLT inhibitor by dissecting microscopic analysis relative to control; format: functional, Colorectal cancer cell; set-up: scale not given: the % may be the effect or the level left
[32] = Stability in human plasma assessed as formation of carboxylate product measured for 72 hrs by RP-HPLC analysis; format: ADME, cell-free
[33] = Toxicity in AOM/DSS-induced orthotopic CRC BALB/c mouse model assessed as lesions in liver at 20 to 40 mg/kg, iv administered once every 2 days for 2 weeks by H&E staining based analysis; format: organism-based; settings: in vivo, 336 h, dose 20-40 mg/kg
[34] = Toxicity in AOM/DSS-induced orthotopic CRC BALB/c mouse model assessed as lesions in heart at 20 to 40 mg/kg, iv administered once every 2 days for 2 weeks by H&E staining based analysis; format: organism-based; settings: in vivo, 336 h, dose 20-40 mg/kg
[35] = Toxicity in AOM/DSS-induced orthotopic CRC BALB/c mouse model assessed as lesions in lung at 20 to 40 mg/kg, iv administered once every 2 days for 2 weeks by H&E staining based analysis; format: organism-based; settings: in vivo, 336 h, dose 20-40 mg/kg
[36] = Toxicity in AOM/DSS-induced orthotopic CRC BALB/c mouse model assessed as lesions in spleen at 20 to 40 mg/kg, iv administered once every 2 days for 2 weeks by H&E staining based analysis; format: organism-based; settings: in vivo, 336 h, dose 20-40 mg/kg
[37] = Toxicity in AOM/DSS-induced orthotopic CRC BALB/c mouse model assessed as lesions in kidney at 20 to 40 mg/kg, iv administered once every 2 days for 2 weeks by H&E staining based analysis; format: organism-based; settings: in vivo, 336 h, dose 20-40 mg/kg
[38] = Toxicity in AOM/DSS-induced orthotopic CRC BALB/c mouse model assessed as body weight loss at 40 mg/kg, iv administered once every 2 days for 2 weeks; format: organism-based; settings: in vivo, 336 h
[39] = Toxicity in AOM/DSS-induced orthotopic CRC BALB/c mouse model assessed as lesions in stomach at 20 to 40 mg/kg, iv administered once every 2 days for 2 weeks by H&E staining based analysis; format: organism-based; settings: in vivo, 336 h, dose 20-40 mg/kg
[40] = Toxicity in AOM/DSS-induced orthotopic CRC BALB/c mouse model assessed as lesions in heart at 13 mg/kg, iv administered once every 2 days for 2 weeks by H&E staining based analysis; format: organism-based; settings: in vivo, 336 h
[41] = Toxicity in AOM/DSS-induced orthotopic CRC BALB/c mouse model assessed as lesions in lung at 13 mg/kg, iv administered once every 2 days for 2 weeks by H&E staining based analysis; format: organism-based; settings: in vivo, 336 h
[42] = Antitumor activity against AOM/DSS-induced orthotopic CRC BALB/c mouse model assessed as reduction in tumor area at 13 mg/kg, iv administered once every 2 days for 2 weeks in presence of SN38 by dissecting microscopic analysis relative to control; format: functional, Colorectal cancer cell; set-up: scale not given: the % may be the effect or the level left
[43] = Antitumor activity against AOM/DSS-induced orthotopic CRC BALB/c mouse model assessed as reduction in tumor area at 13 mg/kg, iv administered once every 2 days for 2 weeks by dissecting microscopic analysis relative to control; format: functional, Colorectal cancer cell; set-up: scale not given: the % may be the effect or the level left
[44] = Toxicity in AOM/DSS-induced orthotopic CRC BALB/c mouse model assessed as lesions in stomach at 13 mg/kg, iv administered once every 2 days for 2 weeks by H&E staining based analysis; format: organism-based; settings: in vivo, 336 h
[45] = Toxicity in AOM/DSS-induced orthotopic CRC BALB/c mouse model assessed as lesions in liver at 13 mg/kg, iv administered once every 2 days for 2 weeks by H&E staining based analysis; format: organism-based; settings: in vivo, 336 h
[46] = Toxicity in AOM/DSS-induced orthotopic CRC BALB/c mouse model assessed as lesions in spleen at 13 mg/kg, iv administered once every 2 days for 2 weeks by H&E staining based analysis; format: organism-based; settings: in vivo, 336 h
[47] = Toxicity in AOM/DSS-induced orthotopic CRC BALB/c mouse model assessed as body weight loss at 13 mg/kg, iv administered once every 2 days for 2 weeks; format: organism-based; settings: in vivo, 336 h
[48] = Toxicity in AOM/DSS-induced orthotopic CRC BALB/c mouse model assessed as body weight loss at 14 mg/kg, ip administered every other day for 2 weeks in presence of Irinotecan; format: organism-based; settings: in vivo, 336 h
[49] = Toxicity in AOM/DSS-induced orthotopic CRC BALB/c mouse model assessed as lesions in kidney at 13 mg/kg, iv administered once every 2 days for 2 weeks by H&E staining based analysis; format: organism-based; settings: in vivo, 336 h

O=C(CCc1ccc(O)cc1)c1c(O)cc(OCCOCCOCCS)cc1O[C@@H]1O[C@H](CO)[C@@H](O)[C@H](O)[C@H]1O
Activity [1]: Non-Toxic | IC50 [2]: 45.4 nM | IC50 [3]: > 100000 nM | Activity [4]: Non-Toxic | Activity [5]: Non-Toxic | Activity [6]: Non-Toxic | IC50 [7]: 330 nM | Activity [8]: Non-Toxic | IC50 [9]: 140 nM | Activity [10]: Non-Toxic | IC50 [11]: > 100000 nM | IC50 [12]: > 100000 nM | Activity [13]: Non-Toxic

CCc1c2c(nc3ccc(OC(=O)OCCSSCCOCCOCCOc4cc(O)c(C(=O)CCc5ccc(O)cc5)c(O)c4)cc13)-c1cc3c(c(=O)n1C2)COC(=O)[C@]3(O)CC
Drug metabolism [14]: Metabolite_Detected | Activity [15]: Active | IC50 [3]: 34.1 nM | Activity [16]: Non-Toxic | Drug metabolism [17]: Metabolite_Detected | Drug metabolism [18]: Metabolite_Detected | Drug metabolism [19]: Metabolite_Detected | Drug metabolism [20]: Metabolite_Detected | Drug metabolism [21]: Metabolite_Detected | Drug metabolism [22]: Metabolite_Detected | Drug uptake [23]: Active | Drug uptake [24]: Not Active | Drug uptake [25]: Active | IC50 [11]: 310 nM | Drug metabolism [26]: Metabolite_Detected | Drug uptake [27]: Active | Drug metabolism [28]: Metabolite_Detected | IC50 [12]: 570 nM | half-life [29]: 0.833 h

CCc1c2c(nc3ccc(OCc4ccc(NC(=O)[C@H](CCCNC(N)=O)NC(=O)[C@@H](NC(=O)CCCCN5C(=O)CC(SCCOCCOCCOc6cc(O)c(C(=O)CCc7ccc(O)cc7)c(O[C@@H]7O[C@H](CO)[C@@H](O)[C@H](O)[C@H]7O)c6)C5=O)C(C)C)cc4)cc13)-c1cc3c(c(=O)n1C2)COC(=O)[C@]3(O)CC (stereo partly specified)
Activity [30]: 55% | IC50 [3]: 3250 nM | Activity [31]: 45% | Stability [32]: Stable | Activity [33]: Non-Toxic | Activity [34]: Non-Toxic | Activity [35]: Non-Toxic | Activity [36]: Non-Toxic | Activity [37]: Non-Toxic | Drug uptake [25]: Active | Activity [38]: Non-Toxic | Activity [39]: Non-Toxic | IC50 [11]: > 100000 nM | IC50 [12]: 15400 nM | half-life [29]: 36 h

O=C(CCc1ccc(O)cc1)c1c(O)cc(OCCOCCOCCS)cc1O
IC50 [2]: 56.5 nM | Activity [40]: Non-Toxic | Activity [41]: Non-Toxic | Activity [42]: 55% | Activity [43]: 35% | Activity [44]: Non-Toxic | Activity [45]: Non-Toxic | Activity [46]: Non-Toxic | IC50 [7]: 360 nM | Activity [47]: Non-Toxic | Activity [48]: Non-Toxic | IC50 [9]: 150 nM | Activity [49]: Non-Toxic | IC50 [12]: > 100000 nM

Source: ChEMBL document CHEMBL5331135, “Design, Synthesis, and Evaluation of Glucose Transporter Inhibitor-SN38 Conjugates for Targeting Colorectal Cancer” (J Med Chem, 2023)
